Laboratory results published in ChEMBL document CHEMBL4507310, “Data for DCP probe A-1211212” (2021).

How the values were obtained:
[1] = target: Sigma intracellular receptor 2 (Homo sapiens, UniProt Q5BJF2); assay: GPCRScan assay: inhibition of Sigma 2; parameters: radioligand conc. used [nm] 5.0, parental cells HEKT
[2] = target: Endothelin receptor type B (Homo sapiens) (UniProt P24530); assay: ETB (h) Eurofins-Cerep binding assay; parameters: ligand concentration 0.03 nM; conditions: filed as agonist, Compound concentration 10.0 uM
[3] = target: Muscarinic acetylcholine receptor M3 (Homo sapiens) (UniProt P20309); assay: M3 (h) Eurofins-Cerep binding assay; parameters: ligand concentration 0.2 nM; conditions: filed as antagonist, Compound concentration 10.0 uM
[4] = target: T1, Muscarinic acetylcholine receptor M4 (Homo sapiens) (UniProt P08173); assay: M4 (h) Eurofins-Cerep binding assay; parameters: ligand concentration 0.2 nM; conditions: filed as antagonist, Compound concentration 10.0 uM
T1 sequence (whole entry): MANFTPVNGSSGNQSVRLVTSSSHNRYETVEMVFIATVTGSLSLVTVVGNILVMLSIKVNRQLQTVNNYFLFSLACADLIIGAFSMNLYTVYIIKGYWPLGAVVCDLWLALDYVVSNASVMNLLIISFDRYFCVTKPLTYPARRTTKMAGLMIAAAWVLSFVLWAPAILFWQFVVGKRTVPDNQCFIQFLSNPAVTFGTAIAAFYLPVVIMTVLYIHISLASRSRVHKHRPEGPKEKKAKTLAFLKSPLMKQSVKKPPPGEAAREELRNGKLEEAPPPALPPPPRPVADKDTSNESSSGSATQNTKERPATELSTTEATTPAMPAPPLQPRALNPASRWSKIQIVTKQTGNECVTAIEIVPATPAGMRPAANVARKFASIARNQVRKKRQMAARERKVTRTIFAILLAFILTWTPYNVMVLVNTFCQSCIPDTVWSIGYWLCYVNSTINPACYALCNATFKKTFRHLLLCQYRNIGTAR

[5] = target: 5-hydroxytryptamine receptor 2B (Homo sapiens) (UniProt P41595); assay: 5-HT2B (h) Eurofins-Cerep binding assay; parameters: ligand concentration 0.2 nM; conditions: filed as agonist, Compound concentration 10.0 uM
[6] = system: Tyrosine-protein kinase ABL1 (Homo sapiens), P00519 [Y253F]; conditions: Compound concentration 1000.0 nM
[7] = target: Aurora kinase A (Homo sapiens) (UniProt O14965); conditions: Compound concentration 1000.0 nM
[8] = target: Tyrosine-protein kinase Blk (Homo sapiens) (UniProt P51451); conditions: Compound concentration 1000.0 nM
[9] = target: Calcium/calmodulin-dependent protein kinase type II subunit beta (Homo sapiens) (UniProt Q13554); conditions: Compound concentration 1000.0 nM
[10] = target: Cyclin-dependent kinase 13 (Homo sapiens) (UniProt Q14004); conditions: Compound concentration 1000.0 nM
[11] = target: Cyclin-dependent kinase 4 (Homo sapiens) (UniProt P11802); conditions: Compound concentration 1000.0 nM
[12] = target: Cyclin-dependent kinase-like 5 (Homo sapiens) (UniProt O76039); conditions: Compound concentration 1000.0 nM
[13] = target: Citron Rho-interacting kinase (Homo sapiens) (UniProt O14578); conditions: Compound concentration 1000.0 nM
[14] = target: Death-associated protein kinase 2 (Homo sapiens) (UniProt Q9UIK4); conditions: Compound concentration 1000.0 nM
[15] = target: Epithelial discoidin domain-containing receptor 1 (Homo sapiens) (UniProt Q08345); conditions: Compound concentration 1000.0 nM
[16] = target: Receptor tyrosine-protein kinase erbB-4 (Homo sapiens) (UniProt Q15303); conditions: Compound concentration 1000.0 nM
[17] = target: Focal adhesion kinase 1 (Homo sapiens) (UniProt Q05397); conditions: Compound concentration 1000.0 nM
[18] = system: Receptor-type tyrosine-protein kinase FLT3 (Homo sapiens), P36888 [UNDEFINED MUTATION]; conditions: Compound concentration 1000.0 nM
[19] = target: Homeodomain-interacting protein kinase 2 (Homo sapiens) (UniProt Q9H2X6); conditions: Compound concentration 1000.0 nM
[20] = system: Mast/stem cell growth factor receptor Kit (Homo sapiens), P10721 [L576P]; conditions: Compound concentration 1000.0 nM
[21] = target: Mitogen-activated protein kinase kinase kinase kinase 5 (Homo sapiens) (UniProt Q9Y4K4); conditions: Compound concentration 1000.0 nM
[22] = target: Dual specificity mitogen-activated protein kinase kinase 1 (Homo sapiens) (UniProt Q02750); conditions: Compound concentration 1000.0 nM
[23] = target: Tyrosine-protein kinase Mer (Homo sapiens) (UniProt Q12866); conditions: Compound concentration 1000.0 nM
[24] = target: Serine/threonine-protein kinase Nek10 (Homo sapiens) (UniProt Q6ZWH5); conditions: Compound concentration 1000.0 nM
[25] = target: Serine/threonine-protein kinase Nek2 (Homo sapiens) (UniProt P51955); conditions: Compound concentration 1000.0 nM
[26] = target: Serine/threonine-protein kinase Nek5 (Homo sapiens) (UniProt Q6P3R8); conditions: Compound concentration 1000.0 nM
[27] = target: Serine/threonine-protein kinase Nek9 (Homo sapiens) (UniProt Q8TD19); conditions: Compound concentration 1000.0 nM
[28] = target: Phosphatidylinositol 4,5-bisphosphate 3-kinase catalytic subunit delta isoform (Homo sapiens) (UniProt O00329); conditions: Compound concentration 1000.0 nM
[29] = target: RAF proto-oncogene serine/threonine-protein kinase (Homo sapiens) (UniProt P04049); conditions: Compound concentration 1000.0 nM
[30] = target: Ribosomal protein S6 kinase alpha-1 (Homo sapiens) (UniProt Q15418); conditions: Compound concentration 1000.0 nM
[31] = target: STE20/SPS1-related proline-alanine-rich protein kinase (Homo sapiens) (UniProt Q9UEW8); conditions: Compound concentration 1000.0 nM
[32] = target: T2, Muscarinic acetylcholine receptor M2 (Homo sapiens) (UniProt P08172); conditions: Compound concentration 10.0 uM
T2 sequence (whole entry): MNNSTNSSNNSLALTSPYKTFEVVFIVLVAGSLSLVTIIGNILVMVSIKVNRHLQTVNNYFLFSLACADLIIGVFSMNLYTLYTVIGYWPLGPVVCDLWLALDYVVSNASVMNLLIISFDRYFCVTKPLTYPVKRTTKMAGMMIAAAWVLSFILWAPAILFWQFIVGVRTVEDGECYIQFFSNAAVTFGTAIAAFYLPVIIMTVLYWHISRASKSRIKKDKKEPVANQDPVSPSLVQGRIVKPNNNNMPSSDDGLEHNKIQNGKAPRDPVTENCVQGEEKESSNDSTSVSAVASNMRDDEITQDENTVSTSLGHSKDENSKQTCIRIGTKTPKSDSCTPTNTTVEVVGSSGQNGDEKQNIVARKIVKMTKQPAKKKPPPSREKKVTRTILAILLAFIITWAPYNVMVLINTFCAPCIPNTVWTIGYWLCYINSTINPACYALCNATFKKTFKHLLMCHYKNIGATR

Sequence of Epithelial discoidin domain-containing receptor 1 (Homo sapiens) (Q08345 whole entry, the tested form may be a part): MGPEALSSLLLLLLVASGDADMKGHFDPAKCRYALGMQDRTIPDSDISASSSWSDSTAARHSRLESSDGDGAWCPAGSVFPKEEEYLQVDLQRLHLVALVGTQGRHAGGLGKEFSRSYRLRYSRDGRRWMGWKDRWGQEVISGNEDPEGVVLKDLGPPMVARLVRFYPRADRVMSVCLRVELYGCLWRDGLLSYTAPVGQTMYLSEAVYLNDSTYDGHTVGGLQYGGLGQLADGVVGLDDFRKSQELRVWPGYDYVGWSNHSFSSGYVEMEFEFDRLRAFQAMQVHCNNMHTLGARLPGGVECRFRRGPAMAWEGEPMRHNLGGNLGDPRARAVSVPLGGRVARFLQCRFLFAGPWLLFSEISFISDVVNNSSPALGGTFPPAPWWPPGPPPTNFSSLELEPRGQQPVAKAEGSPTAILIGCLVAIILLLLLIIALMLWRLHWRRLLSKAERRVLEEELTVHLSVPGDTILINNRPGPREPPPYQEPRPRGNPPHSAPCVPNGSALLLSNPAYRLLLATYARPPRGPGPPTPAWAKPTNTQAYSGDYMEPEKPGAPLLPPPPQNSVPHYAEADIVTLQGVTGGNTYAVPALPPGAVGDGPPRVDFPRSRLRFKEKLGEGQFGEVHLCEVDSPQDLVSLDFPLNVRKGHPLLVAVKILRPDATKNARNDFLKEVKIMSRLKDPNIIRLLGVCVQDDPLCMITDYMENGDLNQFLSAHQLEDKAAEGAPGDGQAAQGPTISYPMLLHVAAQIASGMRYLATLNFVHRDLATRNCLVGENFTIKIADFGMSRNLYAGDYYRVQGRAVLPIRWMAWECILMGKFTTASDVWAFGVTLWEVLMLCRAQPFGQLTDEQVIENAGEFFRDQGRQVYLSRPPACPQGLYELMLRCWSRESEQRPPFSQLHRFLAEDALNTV
Sequence of Cyclin-dependent kinase 13 (Homo sapiens) (Q14004 whole entry, looked up): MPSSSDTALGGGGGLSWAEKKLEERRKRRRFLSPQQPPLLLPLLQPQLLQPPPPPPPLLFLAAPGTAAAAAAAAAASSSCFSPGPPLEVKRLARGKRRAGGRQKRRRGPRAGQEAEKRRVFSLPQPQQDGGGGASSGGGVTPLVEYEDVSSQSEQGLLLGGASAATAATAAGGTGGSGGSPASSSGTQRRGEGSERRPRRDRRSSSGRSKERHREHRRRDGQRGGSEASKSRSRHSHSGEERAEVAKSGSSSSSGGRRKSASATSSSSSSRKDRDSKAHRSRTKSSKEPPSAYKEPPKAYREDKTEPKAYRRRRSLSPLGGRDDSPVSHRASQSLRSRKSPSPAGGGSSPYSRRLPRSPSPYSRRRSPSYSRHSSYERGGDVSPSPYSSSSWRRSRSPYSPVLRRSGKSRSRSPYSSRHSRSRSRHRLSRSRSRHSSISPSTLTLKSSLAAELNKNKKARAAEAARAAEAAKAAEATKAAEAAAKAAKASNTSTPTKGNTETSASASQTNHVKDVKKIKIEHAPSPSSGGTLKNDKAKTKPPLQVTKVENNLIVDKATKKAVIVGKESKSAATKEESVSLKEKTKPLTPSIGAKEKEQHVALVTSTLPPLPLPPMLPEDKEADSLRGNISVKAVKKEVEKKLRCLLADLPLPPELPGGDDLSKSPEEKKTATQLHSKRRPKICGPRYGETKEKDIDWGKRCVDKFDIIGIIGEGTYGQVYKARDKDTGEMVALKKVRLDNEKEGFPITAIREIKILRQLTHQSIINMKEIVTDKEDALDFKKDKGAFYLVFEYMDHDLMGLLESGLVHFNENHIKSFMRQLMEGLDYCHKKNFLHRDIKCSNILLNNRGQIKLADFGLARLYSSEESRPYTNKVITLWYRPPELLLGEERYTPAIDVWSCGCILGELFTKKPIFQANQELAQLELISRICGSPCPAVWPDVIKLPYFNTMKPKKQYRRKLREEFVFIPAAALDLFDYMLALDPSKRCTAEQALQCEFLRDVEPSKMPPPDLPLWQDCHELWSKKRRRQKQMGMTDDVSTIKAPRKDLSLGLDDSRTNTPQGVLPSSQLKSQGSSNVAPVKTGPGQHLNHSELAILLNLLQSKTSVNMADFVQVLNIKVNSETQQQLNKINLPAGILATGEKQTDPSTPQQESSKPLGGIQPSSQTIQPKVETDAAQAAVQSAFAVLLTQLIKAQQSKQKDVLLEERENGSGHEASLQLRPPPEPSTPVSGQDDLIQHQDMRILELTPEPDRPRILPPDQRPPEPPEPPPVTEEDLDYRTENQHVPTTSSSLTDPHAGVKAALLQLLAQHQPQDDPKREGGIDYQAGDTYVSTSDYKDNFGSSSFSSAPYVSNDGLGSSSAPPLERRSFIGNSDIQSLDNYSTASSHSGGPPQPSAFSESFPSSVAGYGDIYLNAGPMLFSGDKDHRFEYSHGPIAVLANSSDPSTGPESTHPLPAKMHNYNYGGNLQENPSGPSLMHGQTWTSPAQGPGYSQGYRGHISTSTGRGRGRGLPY
Sequence of Dual specificity mitogen-activated protein kinase kinase 1 (Homo sapiens) (Q02750 whole entry): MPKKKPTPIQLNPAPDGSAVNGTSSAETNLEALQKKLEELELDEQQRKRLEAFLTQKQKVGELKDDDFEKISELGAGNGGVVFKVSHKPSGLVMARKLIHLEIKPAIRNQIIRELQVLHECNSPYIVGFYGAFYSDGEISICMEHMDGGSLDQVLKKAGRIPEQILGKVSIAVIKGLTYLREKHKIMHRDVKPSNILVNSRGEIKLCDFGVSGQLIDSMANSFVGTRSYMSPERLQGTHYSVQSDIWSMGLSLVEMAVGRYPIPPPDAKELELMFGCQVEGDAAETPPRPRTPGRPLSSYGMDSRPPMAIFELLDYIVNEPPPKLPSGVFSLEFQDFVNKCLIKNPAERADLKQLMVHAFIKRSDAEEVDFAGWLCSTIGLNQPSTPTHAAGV
Sequence of Serine/threonine-protein kinase Nek10 (Homo sapiens) (Q6ZWH5 whole entry): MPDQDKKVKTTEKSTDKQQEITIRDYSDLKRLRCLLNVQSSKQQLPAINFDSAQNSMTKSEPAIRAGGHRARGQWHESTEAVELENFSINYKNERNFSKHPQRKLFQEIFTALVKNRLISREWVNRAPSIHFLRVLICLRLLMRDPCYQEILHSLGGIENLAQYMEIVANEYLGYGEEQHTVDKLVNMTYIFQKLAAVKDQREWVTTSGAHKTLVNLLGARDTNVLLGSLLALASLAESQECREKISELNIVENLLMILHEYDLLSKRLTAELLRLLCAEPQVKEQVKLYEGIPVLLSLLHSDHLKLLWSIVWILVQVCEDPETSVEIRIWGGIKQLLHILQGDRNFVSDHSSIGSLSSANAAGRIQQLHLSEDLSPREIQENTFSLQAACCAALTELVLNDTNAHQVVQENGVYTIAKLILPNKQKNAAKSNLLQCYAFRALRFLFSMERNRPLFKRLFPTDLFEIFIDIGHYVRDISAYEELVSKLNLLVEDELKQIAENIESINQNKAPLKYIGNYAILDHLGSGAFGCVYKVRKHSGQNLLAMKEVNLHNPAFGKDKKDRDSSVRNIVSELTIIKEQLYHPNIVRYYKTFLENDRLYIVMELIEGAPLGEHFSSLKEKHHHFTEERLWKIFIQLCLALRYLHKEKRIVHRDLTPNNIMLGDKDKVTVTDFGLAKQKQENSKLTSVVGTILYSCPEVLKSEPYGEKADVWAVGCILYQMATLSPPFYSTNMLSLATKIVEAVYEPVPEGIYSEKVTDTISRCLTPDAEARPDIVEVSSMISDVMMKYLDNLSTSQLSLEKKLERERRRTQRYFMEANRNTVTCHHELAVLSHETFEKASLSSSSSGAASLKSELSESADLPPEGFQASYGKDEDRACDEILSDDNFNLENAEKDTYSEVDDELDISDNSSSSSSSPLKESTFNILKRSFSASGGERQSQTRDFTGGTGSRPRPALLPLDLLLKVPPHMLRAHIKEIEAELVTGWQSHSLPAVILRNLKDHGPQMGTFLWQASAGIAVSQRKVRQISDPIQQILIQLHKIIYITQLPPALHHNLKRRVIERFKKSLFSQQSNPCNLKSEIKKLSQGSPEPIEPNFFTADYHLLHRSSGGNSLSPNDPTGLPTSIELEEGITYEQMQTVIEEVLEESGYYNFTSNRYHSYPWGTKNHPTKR
Sequence of Receptor-type tyrosine-protein kinase FLT3 (Homo sapiens), P36888 [UNDEFINED MUTATION] (P36888 whole entry, looked up, change not shown): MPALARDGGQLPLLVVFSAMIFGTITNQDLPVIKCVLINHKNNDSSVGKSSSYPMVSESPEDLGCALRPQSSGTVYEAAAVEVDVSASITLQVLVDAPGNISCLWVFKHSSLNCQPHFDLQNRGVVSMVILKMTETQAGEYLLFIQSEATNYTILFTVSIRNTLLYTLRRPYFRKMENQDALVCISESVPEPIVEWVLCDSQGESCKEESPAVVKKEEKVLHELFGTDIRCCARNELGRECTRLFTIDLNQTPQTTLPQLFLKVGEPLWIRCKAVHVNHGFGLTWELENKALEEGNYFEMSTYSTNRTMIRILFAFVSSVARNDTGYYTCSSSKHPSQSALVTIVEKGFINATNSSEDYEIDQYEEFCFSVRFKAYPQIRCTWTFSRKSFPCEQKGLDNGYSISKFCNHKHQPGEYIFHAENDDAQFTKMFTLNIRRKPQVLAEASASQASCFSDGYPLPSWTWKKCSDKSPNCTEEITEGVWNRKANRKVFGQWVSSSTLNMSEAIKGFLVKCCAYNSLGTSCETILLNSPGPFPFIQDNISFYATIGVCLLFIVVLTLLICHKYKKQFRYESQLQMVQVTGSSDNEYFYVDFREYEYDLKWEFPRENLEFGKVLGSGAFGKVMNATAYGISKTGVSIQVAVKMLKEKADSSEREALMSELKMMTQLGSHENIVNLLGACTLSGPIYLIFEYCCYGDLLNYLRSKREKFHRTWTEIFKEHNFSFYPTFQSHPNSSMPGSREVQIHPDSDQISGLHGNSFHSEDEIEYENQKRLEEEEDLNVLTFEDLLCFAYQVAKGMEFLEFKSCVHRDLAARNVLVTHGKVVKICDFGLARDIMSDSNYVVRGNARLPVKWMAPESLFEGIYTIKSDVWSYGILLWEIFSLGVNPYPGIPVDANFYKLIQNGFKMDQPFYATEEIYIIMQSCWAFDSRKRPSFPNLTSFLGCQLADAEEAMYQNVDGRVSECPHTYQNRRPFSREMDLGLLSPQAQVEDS

| SMILES | Ki [1] [µM] | % Inhibition of Control Specific Binding (Mean n=2) [2] [%] | % Inhibition of Control Specific Binding (Mean n=2) [3] [%] | % Inhibition of Control Specific Binding (Mean n=2) [4] [%] | % Inhibition of Control Specific Binding (Mean n=2) [5] [%] | residual activity [6] [%] | residual activity [7] [%] | residual activity [8] [%] | residual activity [9] [%] | residual activity [10] [%] | residual activity [11] [%] | residual activity [12] [%] | residual activity [13] [%] | residual activity [14] [%] | residual activity [15] [%] | residual activity [16] [%] | residual activity [17] [%] | residual activity [18] [%] | residual activity [19] [%] | residual activity [20] [%] | further results |
| --- | --- | --- | --- | --- | --- | --- | --- | --- | --- | --- | --- | --- | --- | --- | --- | --- | --- | --- | --- | --- | --- |
| O=C(NS(=O)(=O)c1ccc(NCC2CCOCC2)c([N+](=O)[O-])c1)c1ccc(N2CCN(Cc3ccc(C(F)(F)F)cc3-c3ccc(Cl)cc3)CC2)cc1Oc1cnc2[nH]ccc2c1 [A-1210227] | 8.37 | -11.8 | 8.9 | 12.3 | -51.4 | 96 | 96 | 84 | 96 | 63 | 100 | 74 | 91 | 85 | 100 | 100 | 100 | 100 | 100 | 100 | residual activity [21]: 98%; residual activity [22]: 92%; residual activity [23]: 100%; residual activity [24]: 100%; residual activity [25]: 100%; residual activity [26]: 100%; residual activity [27]: 100%; residual activity [28]: 60%; residual activity [29]: 100%; residual activity [30]: 100%; residual activity [31]: 89%; inhibition [32]: 1.6% |
| CO[C@H]1CC[C@H](CNc2ccc(S(=O)(=O)NC(=O)c3ccc(N4CCN(CC5=C(c6ccc(Cl)cc6)CC(C)(C)CC5)CC4)cc3Oc3cnc4[nH]ccc4c3)cc2[N+](=O)[O-])CC1 [A-1211212] | 1.49 | -6.7 | 10.3 | 20.6 | -142 | 100 | 100 | 76 | 80 | 100 | 100 | 74 | 74 | 75 | 99 | 80 | 100 | 86 | 100 | 100 | residual activity [21]: 93%; residual activity [22]: 99%; residual activity [23]: 85%; residual activity [24]: 100%; residual activity [25]: 100%; residual activity [26]: 88%; residual activity [27]: 95%; residual activity [28]: 75%; residual activity [29]: 94%; residual activity [30]: 73%; residual activity [31]: 100%; inhibition [32]: -2.68% |
